The source of these data is patent US12060349B2, “Glucosylceramide synthase inhibitors” (Genzyme Corporation, priority 2012, dated 2024).

Experiment [1] relates to GM3 expression on the cell surface, B16 mouse melanoma cells. Briefly: cell based phenotypic assay, cell surface GM3 by antibody mediated immunofluorescence, B16 (GM3 B16 IC50). Particulars: Mus musculus, 50% inhibition of GM3 expression on the cell surface. The method, boiled down:
(§1)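 Two melanoma lines, mouse B16 and human C32, were treated and surface GM3 quantified by antibody immunofluorescence for IC50. A parallel viability readout gives the concentration killing 50% of cells, with values over 10 indicating no cell death.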

The target in experiment [2] is T1, glucosylceramide synthase (Homo sapiens, UniProt Q16739).
T1 construct: Microsomes were isolated from A375 human melanoma cells; endogenous in cells; host or cells: A375 human melanoma cells (microsomal fraction, 100,000 g pellet)
T1 sequence (Q16739 1-394): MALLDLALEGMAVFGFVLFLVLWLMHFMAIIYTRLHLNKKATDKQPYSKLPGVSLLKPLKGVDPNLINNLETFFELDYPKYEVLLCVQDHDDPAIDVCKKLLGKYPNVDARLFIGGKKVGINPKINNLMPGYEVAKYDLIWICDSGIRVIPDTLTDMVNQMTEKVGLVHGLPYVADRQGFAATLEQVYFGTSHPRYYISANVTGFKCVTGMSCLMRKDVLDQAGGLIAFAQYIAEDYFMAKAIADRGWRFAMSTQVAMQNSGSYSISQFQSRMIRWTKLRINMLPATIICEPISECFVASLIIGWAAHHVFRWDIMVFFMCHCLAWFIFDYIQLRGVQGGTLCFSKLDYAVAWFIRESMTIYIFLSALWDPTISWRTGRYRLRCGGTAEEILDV
Briefly: microsomal assay measuring conversion of ceramide to glucosylceramide by HPLC (GCS IC50). In kind it is biochemical. Particulars: concentration causing 50% inhibition of glucosylceramide synthase activity. An outline of the steps:
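IC50 is the compound concentration halving glucosylceramide synthase activity. Activity was measured in microsomes, with HPLC quantifying glucosylceramide formed from ceramide.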

The next experiment has as its system B16 mouse melanoma cells. The experiment in a line: cell viability in the B16 cell-based assay (Viability, B16 IC50). Particulars: Mus musculus. The method, boiled down: (§2)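 Viability readouts were run alongside the GM3 cell-surface assay in the same B16 and C32 cultures. A figure above 10 indicates no cell death.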
The next experiment relates to C32 human melanoma cells. Briefly: cell viability in the C32 cell-based assay (Viability, C32 IC50). Particulars: Homo sapiens, concentration causing 50% cell death, values greater than 10 represent a lack of cell death. The method, boiled down: as §2
Experiment [3] relates to GM3 expression on the cell surface, C32 human melanoma cells. The experiment in a line: cell based phenotypic assay, cell surface GM3 by antibody mediated immunofluorescence, C32 (GM3 C32 IC50). Particulars: Homo sapiens, 50% inhibition of GM3 expression on the cell surface. The method, boiled down: as §1
Setting [4] is: read-out: GM3 B16 IC50, B16 mouse melanoma cells.
Setting [5] is: B16, read-out: Viability, B16 IC50.
Where [6] appears, read: C32, read-out: Viability, C32 IC50, C32 cells.
The mark [7] stands for this setting: read-out: GM3 C32 IC50, C32 human melanoma cells.
[8] abbreviates: B16 mouse melanoma cells, read-out: GM3 B16 IC50.
The mark [9] stands for this setting: B16, B16 cells, concentration causing 50% cell death, values greater than 10 represent a lack of cell death, read-out: Viability, B16 IC50.
Setting [10] is: C32, C32 cells, read-out: Viability, C32 IC50.
The mark [11] stands for this setting: C32 human melanoma cells, read-out: GM3 C32 IC50.

Like-named read-outs stand apart in the source and are kept apart here.

In general, IC50 refers to the concentration at which inhibition is half-maximal. In the case of `COCCOc1ccc(-c2cccc(C(C)(C)NC(=O)OC3CN4CCC3CC4)c2)nc1` (stereo not drawn) [Example 309, Quinuclidin-3-yl 2-(3-(5-(2-methoxyethoxy)pyridin-2-yl)phenyl)propan-2-ylcarbamate], the IC50 in experiment [1] (setting [4]) was 0.188 µM; in experiment [2], 0.106 µM; in the experiment with B16 mouse melanoma cells (setting [5]) it was at least 10 µM; in the experiment with C32 human melanoma cells (setting [6]), 3.16 µM; in experiment [3] (setting [7]), 0.014 µM.

Take `COCCOc1ccc(-c2ccc(C(C)(C)NC(=O)OC3CCN4CCC3CC4)cc2)nc1` (stereo not drawn) [Example 310, 1-Azabicyclo[3.2.2]nonan-4-yl 2-(4-(5-(2-methoxyethoxy)pyridin-2-yl)phenyl)propan-2-ylcarbamate]: the IC50 is 0.145 µM in experiment [1] (setting [8]); 0.123 µM in experiment [2]; at least 10 µM with B16 mouse melanoma cells (setting [9]); 3.16 µM in the experiment on C32 human melanoma cells (setting [10]); 0.0121 µM in experiment [3] (setting [11]).

Consider `COCCOc1ccc(-c2cccc(C(C)(C)NC(=O)OC3CCN4CCC3CC4)c2)nc1` (stereo not drawn) [Example 311, 1-Azabicyclo[3.2.2]nonan-4-yl 2-(3-(5-(2-methoxyethoxy)pyridin-2-yl)phenyl)propan-2-ylcarbamate], for which the IC50 in experiment [1] (setting [8]) was 0.103 µM; in experiment [2], 0.076 µM; in the experiment on B16 mouse melanoma cells (setting [9]), at least 10 µM; with C32 human melanoma cells (setting [10]), 3.16 µM; in experiment [3] (setting [11]) it was 0.0085 µM.

Regarding `COCCCOc1ccc(-c2cccc(C(C)(C)NC(=O)OC3CN4CCC3CC4)c2)nn1` (stereo not drawn) [Example 312, Quinuclidin-3-yl (2-(3-(6-(3-methoxypropoxy)pyridazin-3-yl)phenyl)propan-2-yl)carbamate], the IC50 in experiment [1] (setting [4]) is 1.34 µM; in experiment [2], 1.66 µM; in the experiment with B16 mouse melanoma cells (setting [5]), at least 10 µM; in the experiment with C32 human melanoma cells (setting [6]) it was 1 µM; in experiment [3] (setting [7]), 0.103 µM.

As to `COCCCOc1ccc(-c2cccc(C(C)(C)NC(=O)OC3CCN4CCC3CC4)c2)nn1` (stereo not drawn) [Example 313, 1-Azabicyclo[3.2.2]nonan-4-yl (2-(3-(6-(3-methoxypropoxy)pyridazin-3-yl)phenyl)propan-2-yl)carbamate], the concentration for half-maximal inhibition (IC50) is 0.47 µM in experiment [1] (setting [8]); 0.0889 µM in experiment [2]; at least 10 µM in the experiment with B16 mouse melanoma cells (setting [9]); at least 10 µM in the experiment on C32 human melanoma cells (setting [10]); 0.0107 µM in experiment [3] (setting [11]).

Take `COCCCOc1ccc(-c2cccc(C(C)(C)NC(=O)N3CCN4CCC3CC4)c2)nn1` [Example 314, N-(2-(3-(6-(3-Methoxypropoxy)pyridazin-3-yl)phenyl)propan-2-yl)-1,4-diazabicyclo[3.2.2]nonane-4-carboxamide]: the IC50 was 4.91 µM in experiment [1] (setting [8]); 2.63 µM in experiment [2]; at least 10 µM in the experiment on B16 mouse melanoma cells (setting [9]); at least 10 µM with C32 human melanoma cells (setting [10]); 0.118 µM in experiment [3] (setting [11]).

On to `COCCCOc1cnc(-c2cccc(C(C)(C)NC(=O)OC3CN4CCC3CC4)c2)cn1` (stereo not drawn) [Example 315, Quinuclidin-3-yl (2-(3-(5-(3-methoxypropoxy)pyrazin-2-yl)phenyl)propan-2-yl)carbamate], for which the IC50 in experiment [1] (setting [4]) was 0.435 µM; in experiment [2] it was 0.197 µM; in the experiment with B16 mouse melanoma cells (setting [5]) it was at least 10 µM; in the experiment on C32 human melanoma cells (setting [6]), 1 µM; in experiment [3] (setting [7]), 0.0259 µM.

Take `COCCCOc1cnc(-c2cccc(C(C)(C)NC(=O)OC3CCN4CCC3CC4)c2)cn1` (stereo not drawn) [Example 316, 1-Azabicyclo[3.2.2]nonan-4-yl (2-(3-(5-(3-methoxypropoxy)pyrazin-2-yl)phenyl)propan-2-yl)carbamate]: the IC50 in experiment [1] (setting [8]) is 0.152 µM; in experiment [2], 0.028 µM; with B16 mouse melanoma cells (setting [9]), at least 10 µM; in the experiment with C32 human melanoma cells (setting [10]), at least 10 µM; in experiment [3] (setting [11]) it was 0.00439 µM.

With `COCCCOc1cnc(-c2cccc(C(C)(C)NC(=O)N3CCN4CCC3CC4)c2)cn1` [Example 317, N-(2-(3-(5-(3-Methoxypropoxy)pyrazin-2-yl)phenyl)propan-2-yl)-1,4-diazabicyclo[3.2.2]nonane-4-carboxamide], the IC50 in experiment [1] (setting [8]) was 0.656 µM; in experiment [2], 0.295 µM; in the experiment with B16 mouse melanoma cells (setting [9]) it was at least 10 µM; with C32 human melanoma cells (setting [10]), 1 µM; in experiment [3] (setting [11]), 0.0291 µM.
